These results are taken from article PMC7594054, “Design, Synthesis and In Vitro Experimental Validation of Novel TRPV4 Antagonists Inspired by Labdane Diterpenes” (Marine Drugs, 2020).

The subject of one series is TRPV4. To be noted: read-out: IC50 (TRPV4 antagonist); cited from earlier work.
A further series concerns TRPV1. More on the design: method as in PMID 30507122. Particulars: cited from earlier work.
The next series has as its target T1, rTRPV4 (Rattus norvegicus, UniProt Q9ERZ8).
T1 construct: expressed in transfected cells; host or cells: HEK-293
Put plainly: TRPV4 calcium influx assay (Fluo-4) in HEK-293 cells overexpressing rat recombinant TRPV4. Format: cell-based. From the text:
The interaction properties of all homodrimane-derived compounds 1–16, 18–19, and 22–25 with either TRPV type-4 or type-1 were studied in human embryonic kidney (HEK)-293 cells overexpressing either the rat recombinant type-4 (rTRPV4), which shares with the human orthologue ~95% of sequence identity, and the human recombinant type-1 (hTRPV1) channel, evaluating the changes in intracellular calcium levels. […] Cell fluorescence before and after the addition of various concentrations of test compounds was measured normalizing the effects against the response to ionomycin (4 μM). […] Dose-response curve fitting (sigmoidal dose-response variable slope) and parameter estimation were performed with Graph-Pad Prism8® (GraphPad Software Inc., San Diego, CA, USA). All determinations were performed at least in triplicate.

The next series addresses T2, hTRPV1 (Homo sapiens, UniProt Q8NER1).
T2 construct: expressed in transfected cells; host or cells: HEK-293
Nature of the series: TRPV1 calcium influx assay (Fluo-4) in HEK-293 cells overexpressing human recombinant TRPV1. Format: cell-based.

A further series deals with HeLa cells. Nature of the series: MTT cytotoxicity assay, HeLa cells. Format: cell-based, human. To be noted: HeLa cells, 1, 5 and 25 μM, 24 h. The procedure: (§1) HeLa and A549 cells were seeded at 2 × 10^3 cells/cm^2 density in 24-well plastic plates. One day after plating, compounds 6 and 18 were added to the culture medium for 24 h. Cell viability was evaluated with the 3-(4,5-dimethylthiazol-2-yl)-2,5-diphenyltetrazolium bromide (MTT; 0.5 mg/mL; Sigma-Aldrich, Milan, Italy) reduction assay, and formazan salt formation upon MTT reduction by the mitochondria of living cells was detected spectrophotometrically at 595 nm according to published procedures.
(§2) Figure 2 Cell viability measured in HeLa and A549 cells treated for 24 h with increasing concentration of compound 6 (panel A, C) and 18 (panel B, D). Bar graphs show cell viability measured using the 3-(4,5-dimethylthiazol-2-yl)-2,5-diphenyltetrazolium bromide (MTT) assay. Data are expressed as optical density (OD) at 595 nm, normalized to control (vehicle). The bar is the standard error of the mean (SEM) on 3 independent determinations. Statistically significant differences were accepted when the p-value was at least ≤0.05.
On the technique in general: Tetrazolium assays rely on reduction of a dye to a coloured formazan, in cell work by metabolically active cells.

A further series deals with A549 cells. Put plainly: MTT cytotoxicity assay, A549 cells. It is filed as cell-based, human. To be noted: A549 cells, 1, 5 and 25 μM, 24 h. As to the method: as §1, §2

T1 sequence (Q9ERZ8 whole entry): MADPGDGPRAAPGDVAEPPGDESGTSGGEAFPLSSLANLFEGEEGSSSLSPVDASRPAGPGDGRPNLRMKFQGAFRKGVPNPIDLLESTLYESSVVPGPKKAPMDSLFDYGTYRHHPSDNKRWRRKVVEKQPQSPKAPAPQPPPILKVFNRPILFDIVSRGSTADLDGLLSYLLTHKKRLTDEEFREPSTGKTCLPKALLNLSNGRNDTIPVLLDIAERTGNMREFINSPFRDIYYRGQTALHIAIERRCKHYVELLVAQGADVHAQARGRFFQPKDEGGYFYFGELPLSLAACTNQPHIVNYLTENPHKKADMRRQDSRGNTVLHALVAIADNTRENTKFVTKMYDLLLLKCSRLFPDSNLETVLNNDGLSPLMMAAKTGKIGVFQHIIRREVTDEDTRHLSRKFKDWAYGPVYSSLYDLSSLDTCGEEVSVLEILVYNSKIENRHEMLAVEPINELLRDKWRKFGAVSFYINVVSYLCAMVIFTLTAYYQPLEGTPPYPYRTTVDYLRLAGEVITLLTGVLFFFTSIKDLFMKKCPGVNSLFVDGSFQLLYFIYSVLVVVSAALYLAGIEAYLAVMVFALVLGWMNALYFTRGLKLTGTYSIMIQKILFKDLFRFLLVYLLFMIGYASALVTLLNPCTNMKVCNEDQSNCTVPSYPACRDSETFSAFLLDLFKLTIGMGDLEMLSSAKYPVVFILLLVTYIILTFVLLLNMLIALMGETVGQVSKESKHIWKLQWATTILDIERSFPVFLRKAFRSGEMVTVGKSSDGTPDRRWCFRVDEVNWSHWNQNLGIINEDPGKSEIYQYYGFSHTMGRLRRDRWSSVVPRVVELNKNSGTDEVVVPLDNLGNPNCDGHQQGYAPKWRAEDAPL
T2 sequence (Q8NER1 whole entry): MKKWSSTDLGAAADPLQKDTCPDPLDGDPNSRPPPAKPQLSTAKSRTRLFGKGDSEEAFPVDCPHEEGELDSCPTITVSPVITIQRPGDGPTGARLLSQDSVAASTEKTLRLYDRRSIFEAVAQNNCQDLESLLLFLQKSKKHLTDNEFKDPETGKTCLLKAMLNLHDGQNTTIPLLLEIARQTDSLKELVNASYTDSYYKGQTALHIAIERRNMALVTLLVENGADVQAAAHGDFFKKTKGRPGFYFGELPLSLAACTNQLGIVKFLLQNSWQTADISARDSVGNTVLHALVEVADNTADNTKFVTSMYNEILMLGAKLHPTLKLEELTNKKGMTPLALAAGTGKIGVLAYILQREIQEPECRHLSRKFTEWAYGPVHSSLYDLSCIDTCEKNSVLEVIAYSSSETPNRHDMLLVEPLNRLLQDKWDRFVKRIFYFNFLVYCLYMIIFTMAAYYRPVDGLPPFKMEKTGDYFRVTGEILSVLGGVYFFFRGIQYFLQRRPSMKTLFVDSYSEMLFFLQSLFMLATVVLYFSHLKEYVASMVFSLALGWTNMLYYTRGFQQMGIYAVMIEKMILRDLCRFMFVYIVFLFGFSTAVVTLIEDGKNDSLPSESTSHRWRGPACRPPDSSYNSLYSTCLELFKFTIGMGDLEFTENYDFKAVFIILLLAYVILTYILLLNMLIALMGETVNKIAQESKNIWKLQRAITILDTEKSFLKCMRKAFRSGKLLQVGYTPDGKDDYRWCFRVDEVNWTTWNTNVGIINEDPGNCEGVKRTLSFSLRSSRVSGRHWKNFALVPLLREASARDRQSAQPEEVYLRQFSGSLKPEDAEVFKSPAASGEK

Consider `C/C=C(\C)[C@H]1C(C)=C[C@H]2C[C@@H](C)C[C@@H](C(=O)O)[C@@H]2[C@@]1(C)C(=O)c1cccnc1` [onydecalin A], for which the half-inhibitory concentration (IC50) in the series with TRPV4 was 45.9 µM. The “activity towards TRPV1 in words” value in the series on TRPV1 is listed as “partial activity”.
Take `CC1(C)CCC[C@]2(C)[C@@H](CC(=O)NCc3ccc(Cl)c(Cl)c3)[C@](C)(O)CC[C@@H]12` [Compound 6, N-(3,4-dichlorobenzyl)-2-((1R,2R,4aS,8aS)-2-hydroxy-2,5,5,8a-tetramethyldecahydronaphthalen-1-yl)acetamide]: the “activity on rTRPV4 in words” value on rTRPV4 is “potent and selective TRPV4 antagonists”. Further, the IC50 at rTRPV4 (against the effect of GSK1016790A (10 nM) after a 5-min pre-incubation, read-out: IC50 inh. TRPV4) is 5.3 ± 0.3 µM; at hTRPV1 (read-out: IC50 inh TRPV1), above 100 µM. For the same compound, the Efficacy % is given as below 10% at rTRPV4 (as percent of the effect of ionomycin (4 µM), HEK-293 cells overexpressing rTRPV4, means ± SEM, n >= 3) and 16.9 ± 0.3% on hTRPV1 (as percent of the effect of ionomycin (4 µM), HEK-293 cells overexpressing hTRPV1, means ± SEM, N >= 3). The “cytotoxic effect (cell viability, MTT)” value in the series with HeLa cells and with A549 cells was “neither compound caused statistically-significant cytotoxic effects at any tested concentration” each time.

Usually IC50 stands for the concentration that inhibits the measured activity by half.
